System: Duramyl 60T (α-amylase)
Experiment: Activation of Duramyl 60T by types of oxidizing agents (phadebas method)
Assay type: biochemical
Conditions: activity of Duramyl 60T (a1) after contact with oxidizing agent powder (b2), ratio 10/1; 25° C., 8 g/m^3, 30 minutes
Description: One tablet from Neo, Amylase Test “Daiichi” (product number: 701501-005, available from Daiichi Pure Chemicals Co., Ltd.) was added to 5 mL buffer (Britton-Robinson's Buffer, pH 8.5, 50 mM (Koichi Anan et al., Fundamental Biochemical Experimental Method 6 [in Japanese], p. 277, Maruzen Co., Ltd.)) and stirred for about 10 seconds, then 1 mL enzyme solution diluted with 2 mM aqueous calcium chloride was added, and the mixture was reacted at 50° C. for 15 minutes. 1 mL of 0.5 N aqueous sodium hydroxide was added to the solution under stirring to terminate the reaction, and then the reaction solution was centrifuged (400×g, 5 minutes) to precipitate insoluble components, and the supernatant thus obtained by centrifugation was measured for absorbance at 620 nm.
One tablet from Neo, Amylase Test “Daiichi” was added to 5 mL buffer (Britton-Robinson's Buffer, pH 8.5, 50 mM (Koichi Anan et al., Fundamental Biochemical Experimental Method 6 [in Japanese], p. 277, Maruzen Co., Ltd.)) and stirred for about 10 seconds. […] The supernatant thus obtained by centrifugation was measured for absorbance at 620 nm.
The activity of amylase was calculated from the difference in absorbance between (1) and (2) in a calibration curve as a standard of an International Unit sample enclosed with Neo, Amylase Test “Daiichi”. […]

SMILES	Relative activity (%)
O.O.O.O.O=BO[O-].[Na+] [Sodium perborate•4H2O, sodium perborate.4H2O]	140%
O.[Na+].[O-][Cl+3]([O-])([O-])[O-] [Sodium perchlorate•1H2O, sodium perchlorate.1H2O]	120%

— patent US7863235B2, “Method of activating α-amylase with oxidizing agents” (Kao Corporation, priority 2004, dated 2011)
